In one series the test system is 1321N1 astrocytoma cells. The experiment in a line: Antiproliferative activity (MTS), 1321N1. To be noted: Homo sapiens, 1321-N1; MTS assay. Format: cell-based, human. The procedure:
(§1) These cell lines were characterized by different mutation profiles, the main one being the variable status of the p53 protein. In detail, U87MG cells have a wild-type p53 protein, while astrocytoma and the rest of GBM cells harbor mutated p53 protein. Additional assays were performed on MCF7 breast cancer and AsPC-1 pancreatic cancer cells. The wide range of tested lines was aimed at screening the anticancer potential of the tested compounds. The first represents one of the most common and the second one of the most aggressive cancers in the world. Comparing the activity of compounds on GBM cells to other types of cancer may reveal their selectivity and usefulness in targeted therapies. The cytotoxicity of the compounds on normal human astrocytes (NHA) and Feline catus astrocyte (PG-4) was determined. Tests on normal lines serve to verify the potential toxicity of the tested compounds on healthy cells. Due to the targeting of CNS tumors, astrocytes were selected as normal lines.
(§2) The detailed procedure is presented in previous publications.[53] […] Cells were cultured in appropriate media, supplemented with FBS, antibiotics, and other supplements, and incubated at 37 °C with 5% CO2. […] Cell viability was assessed using the MTS assay, and the inhibitory concentration (IC50) was calculated using GraphPad Prism 8.0. Each compound was tested in triplicate across multiple experiments.
Supplementary materials - Biological research […]

The target of a further series is T1, 5-HT7 (Homo sapiens, UniProt P34969).
T1 construct: expressed in transfected cells; host or cells: HEK293
T1 sequence (P34969 whole entry, species assumed): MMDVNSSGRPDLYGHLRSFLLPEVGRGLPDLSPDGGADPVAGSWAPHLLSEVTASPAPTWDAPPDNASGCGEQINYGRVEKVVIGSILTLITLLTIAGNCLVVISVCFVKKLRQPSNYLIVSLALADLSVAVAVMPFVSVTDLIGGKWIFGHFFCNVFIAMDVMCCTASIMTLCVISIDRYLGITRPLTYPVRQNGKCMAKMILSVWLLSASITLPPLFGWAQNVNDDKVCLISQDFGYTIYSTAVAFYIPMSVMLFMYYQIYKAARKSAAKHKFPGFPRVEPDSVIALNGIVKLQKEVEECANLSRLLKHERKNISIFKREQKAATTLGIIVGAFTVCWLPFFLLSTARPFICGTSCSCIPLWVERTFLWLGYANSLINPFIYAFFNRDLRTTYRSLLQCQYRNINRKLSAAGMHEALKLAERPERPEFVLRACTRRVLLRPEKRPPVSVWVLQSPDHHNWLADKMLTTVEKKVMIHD
The experiment in a line: Radioligand binding assay, 5-HT7 ([3H]-5-CT). To be noted: Table 3, unit inferred; 0.8 nM [3H]-5-CT. Here is the method: Their functional activity was also evaluated by assessing their ability to inhibit agonist-induced cAMP production in HEK293 cells (Table 3). Extended radioisotope tests were aimed at detecting potential affinity for other aminergic receptors, whose role in cancer treatment may be important. Functions were tested for all receptors. The essence of functional tests results from the fact that serotonin stimulates tumor progression. Therefore, the ligand should have the potential to reduce its concentration, i.e., act as an antagonist.[39]
The detailed procedure is presented in previous publications.[53] Assays were performed by incubating for 1 h at 37 °C (room temperature for 5-HT1A) in 200 μL volumes on 96-well plates. The reaction was terminated by rapid filtration using Unifilter plates, and radioactivity on the filters was measured with a PerkinElmer Microbeta plate reader. Radioligands used were:
Eight concentrations (10^–4 to 10^–11 M) were tested in triplicate for each compound. Inhibition constants (Ki) were calculated using the Cheng–Prusoff equation.[54] The results are expressed as the means of at least two independent experiments.

Another series has as its system U-251 glioblastoma cells. Kind of series: Antiproliferative activity (MTS), U-251. Format: cell-based, human. The settings on record: Homo sapiens, U-251; MTS assay, 72 h. The procedure: as §1, §2
(Tetrazolium dyes change colour on reduction, which living cells bring about.)

For series [1], the system named is AsPC-1 pancreatic cancer cells. Kind of series: Antiproliferative activity (MTS), AsPC-1. Format: cell-based, human. To be noted: Homo sapiens, ASPC1; MTS assay, 72 h. The procedure:
as §1, with “The chosen group of ligands was further examined for their ability to inhibit proliferation across multiple cancer cell lines related to the CNS system (1321N1, U87MG, LN-229, and U-251). These” for “These”
The detailed procedure is presented in previous publications.[53] Briefly, the study utilized various human cancer and normal cell lines, including LN-229 (glioblastoma), MCF7 (breast carcinoma), HepG2 (hepatoma), U-251 (glioblastoma), U87MG (glioblastoma), AsPC-1 (pancreatic adenocarcinoma), and NHA (normal human astrocytes). Cells were cultured in appropriate media, supplemented with FBS, antibiotics, and other supplements, and incubated at 37 °C with 5% CO2. Compounds were dissolved in DMSO, prepared at various concentrations (1–25 μM), and applied to the cells for 72 h. Cell viability was assessed using the MTS assay, and the inhibitory concentration (IC50) was calculated using GraphPad Prism 8.0. Each compound was tested in triplicate across multiple experiments.

The nature of series [2]: Lipophilicity, chromatographic hydrophobicity index on C18 (Valko protocol). Format: physicochemical. The procedure: (§3) Lipophilicity and affinity for phospholipids for each investigated molecule were assessed. Additionally, selected compounds with the highest biological activities have been characterized by their affinity plasma proteins. All experiments were performed using protocols developed by Valko.[35] These methods facilitated the calculation of chromatographic hydrophobicity indices (CHI) and plasma protein binding percentages (%PPB) in a biochromatographic experiment, with results compared to the reference. A detailed description of the experiments is provided in the Supporting Information (SI), along with the raw data. […] Although high lipophilicity may limit the medical use of the analyzed compounds since they may tend to accumulate excessively in the human body, it is remarkable that several clinically used drugs also have high lipophilicity. […] (Table 5).
(§4) The detailed procedure is presented in previous publications.[53] High-performance liquid chromatography (HPLC) analyses were conducted using the Prominence-1 LC-2030C 3D system (Shimadzu) with a DAD detector, employing three different chromatographic columns with specific stationary phases and mobile phases. The analysis was performed at 30 °C with a flow rate of 1.5 mL/min for IAM and C18 columns, and 0.9 mL/min for the Chiralpak column. Calibration standards for the columns were sourced from various suppliers and dissolved in dimethyl sulfoxide. Detection occurred in the UV range (190–300 nm) with a 5 μL injection volume. Each compound was analyzed in triplicate. Retention times for the tested compounds and calibration standards are provided in the Supporting Information (Tables S1 and S2).

Series [3] can be described thus: Affinity to phospholipids, CHI IAM (Valko protocol). To be noted: IAM column. Format: physicochemical. The procedure: as §3, §4
The subject of series [4] is LN-229 glioblastoma cells. The experiment in a line: Antiproliferative activity (MTS), LN-229. Format: cell-based, human. The settings on record: Homo sapiens, LN-229; MTS assay, 72 h. Here is the method:
as §1, §2

In series [5] the target is T2, human serum albumin (HSA) (Homo sapiens, UniProt P02768).
T2 construct: purchased
T2 sequence (P02768 25-609): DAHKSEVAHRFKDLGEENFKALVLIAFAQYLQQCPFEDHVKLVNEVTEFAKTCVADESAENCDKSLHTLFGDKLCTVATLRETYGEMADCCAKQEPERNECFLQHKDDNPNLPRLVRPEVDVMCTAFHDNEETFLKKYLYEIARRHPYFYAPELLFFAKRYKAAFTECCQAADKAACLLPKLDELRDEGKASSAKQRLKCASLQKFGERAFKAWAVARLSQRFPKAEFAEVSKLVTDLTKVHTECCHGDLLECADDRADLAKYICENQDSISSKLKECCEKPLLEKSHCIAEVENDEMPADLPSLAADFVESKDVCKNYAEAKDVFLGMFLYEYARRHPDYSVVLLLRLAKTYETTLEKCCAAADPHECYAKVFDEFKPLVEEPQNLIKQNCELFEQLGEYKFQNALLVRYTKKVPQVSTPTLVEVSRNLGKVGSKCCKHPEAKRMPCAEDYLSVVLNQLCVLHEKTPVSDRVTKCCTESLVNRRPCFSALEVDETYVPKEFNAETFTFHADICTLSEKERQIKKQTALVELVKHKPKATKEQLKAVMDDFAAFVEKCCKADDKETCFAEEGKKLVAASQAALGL
Kind of series: HSA binding by biochromatography (HSA column). Format: in vitro ADME. To be noted: HSA column. The procedure: as §3, §4

In another series the test system is HepG2 hepatoma cells. The experiment in a line: Hepatotoxicity (MTS), HepG2. To be noted: 48 h; for hepatotoxic effect on HepG2: 1–10 μM; for HepG2 cell viability: 50 or 100 μM. Format: cell-based, human. The procedure:
As a next step, we decided to investigate the potential toxicity of our lead compounds by assessing their toxic effects on the liver (in vitro), heart, and brain (in vivo). The safety profile was assessed through a hepatotoxicity assay using HepG2 hepatoma cells. (Figures 2E,F, 3E,F).

The structures appear in SMILES notation. “And” between values parts separate entries of the source, which are not always exact repeats. Equal values may be shown once. Bounds are passed on as bounds.

For `O=S(=O)(c1cccc2ccccc12)N1CCN(CCNC2=Nc3ccccc3CN2)CC1` [PP 6, N-{2-[4-(Naphthalene-1-sulfonyl)piperazin-1-yl]ethyl}-3,4-dihydroquinazolin-2-amine], the IC50 in the series with 1321N1 astrocytoma cells was 20.9 ± 1.4 µM. The compound further yielded a Ki at 5-HT7 of 2.4 µM. The compound also gave an IC50 in the series on U-251 glioblastoma cells of more than 25 µM. In series [1], the IC50 is more than 25 µM. In series [2], the “CHI C18 pH 2.6” value is given as 92.9, the “CHI C18 pH 7.4” value came out at 101.5 and the “CHI C18 pH 10.5” value amounted to 138.2. Further, the “CHI IAM” value in series [3] is reported as 50.9. The compound also gave an IC50 in series [4] of more than 25 µM. Further, in series [5], the “%HSA” value turned out to be 97.2%; the logKHSA is 1.41 and 1.4.
Compound `CC1NC(NCCCCCCNS(=O)(=O)c2cccc3ccccc23)=Nc2ccccc21` (stereo not drawn) [PP 10, N-{6-[(4-Methyl-3,4-dihydroquinazolin-2-yl)amino]hexyl}naphthalene-1-sulfonamide] returned an IC50 in the series with 1321N1 astrocytoma cells of 13.4 ± 0.8 µM. On 5-HT7, this compound showed a Ki of 0.189 µM. This compound also had an IC50 with U-251 glioblastoma cells of more than 25 µM. Further, in series [1], the IC50 is more than 25 µM. In addition, in series [2], the “CHI C18 pH 2.6” value came out at 89.8, the “CHI C18 pH 7.4” value is on record as 99.7 and the “CHI C18 pH 10.5” value came out at 120.4. Moreover, in [3], the “CHI IAM” value is listed as 56.4. Further, in the series with HepG2 hepatoma cells, the “hepatotoxic effect on HepG2” value is reported as “no hepatotoxic effects” and the HepG2 cell viability result is reported as “statistically significant decrease in cell viability”. The same compound displayed an IC50 in series [4] of more than 25 µM. In addition, in [5], the “%HSA” value was 97.7%; the logKHSA was 1.47 and 1.5.
In the series on 1321N1 astrocytoma cells, `CC1NC(NCCCCCCNS(=O)(=O)c2c(Cl)ccc3ccccc23)=Nc2ccccc21` (stereo not drawn) [PP 13, 2-Chloro-N-{6-[(4-methyl-3,4-dihydroquinazolin-2-yl)amino]hexyl}naphthalene-1-sulfonamide] registered an IC50 of 9.6 ± 1.8 µM. On 5-HT7, this compound had a Ki of 0.198 µM. For the same compound, the 50% inhibitory concentration (IC50) in the series on U-251 glioblastoma cells was more than 25 µM. In addition, the IC50 in series [1] was 14.6 ± 0.5 µM. Further, in series [2], the “CHI C18 pH 2.6” value was determined as 115.8, the “CHI C18 pH 7.4” value is reported as 105.7 and the “CHI C18 pH 10.5” value amounted to 128.8. The “CHI IAM” value in [3] is reported as 59.9. In the series with HepG2 hepatoma cells, the “hepatotoxic effect on HepG2” value is listed as “no hepatotoxic effects” and the HepG2 cell viability entry is “statistically significant decrease in cell viability”. In series [4], this compound gave an IC50 of more than 25 µM. Also, the “%HSA” value in series [5] is more than 99.8%.
In the series on 1321N1 astrocytoma cells, `O=S(=O)(NCCCCCCNc1ncc2ccccc2n1)c1cccc2ccccc12` [PP 15, N-{6-[(Quinazolin-2-yl)amino]hexyl}naphthalene-1-sulfonamide] returned an IC50 of more than 25 µM. This compound registered a Ki at 5-HT7 of 1.56 µM. Also, the IC50 with U-251 glioblastoma cells is more than 25 µM. In series [1], this compound gave an IC50 of more than 25 µM. In series [2], the “CHI C18 pH 2.6” value was determined as 99, the “CHI C18 pH 7.4” value is given as 104.4 and the “CHI C18 pH 10.5” value came out at 107.2. Also, the “CHI IAM” value in series [3] is 45.8. Also, in the series with HepG2 hepatoma cells, the “hepatotoxic effect on HepG2” value is recorded as “no hepatotoxic effects” and the HepG2 cell viability result is “statistically significant decrease in cell viability”. In addition, in [4], the IC50 was more than 25 µM. Besides, in [5], the “%HSA” value is given as 97.8%; the logKHSA was 1.48 and 1.5.
In the series on 1321N1 astrocytoma cells, `O=S1(=O)c2cccc3cccc(c23)N1CCCCCCNC1=Nc2ccccc2CN1` [PP 24, 3-{6-[(3,4-Dihydroquinazolin-2-yl)amino]hexyl}-2λ^6-thia-3-azatricyclo[6.3.1.0^4,^12]dodeca-1(11),4(12),5,7,9-pentaene-2,2-dione] gave an IC50 of 8.4 ± 1.9 µM. Also, the IC50 in the series on U-251 glioblastoma cells is 16.5 ± 1 µM. It took 12.1 ± 1 µM to reach half-maximal inhibition in series [1] (IC50). In series [2], the “CHI C18 pH 2.6” value was 84.7, the “CHI C18 pH 7.4” value is 103.2 and the “CHI C18 pH 10.5” value stood at 127. Moreover, the “CHI IAM” value in [3] is 56.5. The “cytotoxic effect on HepG2” value with HepG2 hepatoma cells (10 μM) was “strong cytotoxic effect”. Also, the IC50 in [4] is 18.4 ± 1.1 µM. For the same compound, in [5], the “%HSA” value stood at 98.8%; the logKHSA is 1.65 and 1.6.

Broadly, the IC50 is the midpoint of a concentration-inhibition curve. Low values mean higher potency, high ones lower potency. A word on the Ki: it is a measure of affinity in units of concentration, obtained from inhibition or displacement. A high value points to weaker binding.

Source of the values: publication PMC11866022, “Long-Chain Cyclic Arylguanidines as Multifunctional Serotonin Receptor Ligands with Antiproliferative Activity” (ACS Omega, 2025).
